Measurements reported in patent publication US4559339A, “Indol-3-yl-quinazolino-1,4-benzodiazepin-5,13-diones” (Merck & Co., Inc., priority 1985, dated 1985).
Where two headings read alike, the source gives them in different places.

Tests used:
[1] = target: T1, CCK receptor (pancreas) (Rattus norvegicus, UniProt P30551); assay: CCK receptor binding (pancreas) method; set-up: species or system Sprague-Dawley rat; conditions: rat pancreas membranes, 37° C., 30 minutes; read-out: I-CCK-8 Pancreas IC50
T1 construct: The whole pancreas of a male Sprague-Dawley rat; from tissue; host or cells: whole pancreas of male Sprague-Dawley rat, washed membrane homogenate
T1 sequence (P30551 1-444): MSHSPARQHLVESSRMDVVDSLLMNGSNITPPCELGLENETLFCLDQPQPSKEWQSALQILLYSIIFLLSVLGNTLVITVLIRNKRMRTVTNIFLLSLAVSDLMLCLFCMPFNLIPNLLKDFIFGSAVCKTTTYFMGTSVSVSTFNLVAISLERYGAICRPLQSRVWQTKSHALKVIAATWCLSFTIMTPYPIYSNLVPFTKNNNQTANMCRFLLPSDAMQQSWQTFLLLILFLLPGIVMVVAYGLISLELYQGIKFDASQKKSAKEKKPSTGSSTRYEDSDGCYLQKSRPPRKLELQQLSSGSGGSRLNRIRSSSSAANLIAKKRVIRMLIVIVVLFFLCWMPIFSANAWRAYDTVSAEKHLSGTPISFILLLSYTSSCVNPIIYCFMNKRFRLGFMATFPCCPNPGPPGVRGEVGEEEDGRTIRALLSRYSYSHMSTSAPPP
Method: (§1) Screening of the novel compounds according to the present invention to determine biological activity and obtain an IC50 value for them, in order to identify significant CCK-antagonism, may be accomplished using an ^125 I-CCK receptor binding assay and in vitro isolated tissue preparations. These tests involve the following:
CCK receptor binding (pancreas) method
[…] (J. Biol. Chem., 254, 9349-9351, 1979). Receptor binding is performed according to Innis and Snyder (Proc. Natl. Acad. Sci., 77, 6917-6921, 1980), with the minor modification of adding the additional protease inhibitors, phenyl-methane sulfonyl fluoride and o-phenanthroline, which have no effect on the ^125 I-CCK receptor binding assay.
The whole pancreas of a male Sprague-Dawley rat (200-350 g), which has been sacrificed by decapitation, is dissected free of fat tissue and homogenized in 20 volumes of ice-cold 50 mM Tris HCl (pH 7.7 at 25° C.) with a Brinkman Polytron PT-10. The homogenates are centrifuged at 48,000 g for 10 minutes, then the resulting pellets are resuspended in Tris Buffer, centrifuged as above, and resuspended in 200 volumes of binding assay buffer (50 mM Tris HCl, pH 7.7 at 25° C., 5 mM dithiothreitol, 0.1 mM bacitracin, 1.2 mM phenylmethane sulfonyl fluoride and 0.5 mM o-phenanthroline).
For the binding assay, 25 μl of buffer (for total binding), or unlabeled CCK-8 sulfate sufficient to give a final concentration of 1 μM of CCK-8 (for nonspecific binding), or the compounds of the formula of the compounds according to the instant invention ([…]), are added to 450 μl of the membrane suspensions in microfuge tubes. All assays are run in duplicate or triplicate, and the reaction mixtures are incubated at 37° C. for 30 minutes and centrifuged in a Beckman Microfuge (4 minutes) immediately after adding 1 ml of ice-cold incubation buffer. The supernatant is aspirated and discarded, and the pellets are counted with a Beckman Gamma 5000.

[2] = target: T2, CCK receptor (brain) (Cavia porcellus, UniProt H0VZC5); assay: CCK receptor binding (brain) method; set-up: species or system Hartley guinea pig; conditions: guinea pig cerebral cortex, 25° C., 2 hours; read-out: ^125 I-CCK Brain IC50
T2 construct: The cerebral cortex is dissected and used as a receptor source; from tissue; host or cells: cerebral cortex of male Hartley guinea pig, membrane homogenate
T2 sequence (H0VZC5 1-426): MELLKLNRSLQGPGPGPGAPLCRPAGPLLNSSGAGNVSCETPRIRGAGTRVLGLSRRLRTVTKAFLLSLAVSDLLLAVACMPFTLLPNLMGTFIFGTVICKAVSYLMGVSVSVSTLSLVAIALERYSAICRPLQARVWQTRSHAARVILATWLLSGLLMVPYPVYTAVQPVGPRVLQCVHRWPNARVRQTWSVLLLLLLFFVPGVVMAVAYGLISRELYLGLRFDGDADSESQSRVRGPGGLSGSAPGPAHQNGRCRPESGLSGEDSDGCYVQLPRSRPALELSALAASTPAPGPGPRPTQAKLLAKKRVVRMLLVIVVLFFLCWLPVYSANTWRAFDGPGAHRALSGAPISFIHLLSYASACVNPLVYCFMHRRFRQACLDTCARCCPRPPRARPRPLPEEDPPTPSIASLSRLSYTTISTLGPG
Method: as §1
CCK receptor binding (brain) method
CCK-33 is radiolabeled and the binding is performed according to the description for the pancreas method, with modifications according to Saito et al., J. Neurochem., 37, 483-490, 1981.
Male Hartley guinea pigs (300-500 g) are sacrificed by decapitation, and the brains are removed and placed in ice-cold 50 mM Tris HCl (Trizma-7.4) [pH 7.4 at 25° C.]. The cerebral cortex is dissected and used as a receptor source and each gram of fresh guinea pig brain tissue is homogenized in 10 ml of Tris/Trizma buffer with a Brinkman polytron PT-10. The homogenates are centrifuged at 42,000 g for 15 minutes, then the resulting pellets are resuspended in 80 volumes of binding assay buffer (10 mM N-2-hydroxy-ethylpiperazine-N'-2-ethanesulfonic acid (HEPES), 5 mM MgCl2, 1 mM ethylene glycol-bis-(β-amino-ethyl-ether-N,N'-tetraacetic acid (EGTA), 0.4% BSA and 0.25 mg/ml bacitracin, pH 6.5).
The remainder of the binding assay method is as described for the pancreas method, except that the reaction mixtures are incubated at 25° C. for 2 hours before centrifugation.

[3] = target: T1, CCK receptor (pancreas); conditions: prior compound, U.S. Pat. No. 4,530,790; cited from earlier work
[4] = system: cholecystokinins in the gut; conditions: prior compound; cited from earlier work
[5] = system: CCK receptor; conditions: structure-function studies; cited from earlier work

Structure (SMILES) | IC50 [1] [µM] | IC50 [2] [µM] | IC50 [3] [µM] | selectivity in inhibiting the function of cholecystokinins [4] | CCK-receptor antagonist potency within derivatives of cyclic nucleotides [5]
CC(C)C[C@@H](NC(=O)OC(C)(C)C)C(=O)N1CC(C[C@@H]2NC(=O)c3ccccc3-n3c2nc2ccccc2c3=O)c2ccccc21 (single isomer, unassigned; isomer 1) [Example 6] | 16.5 | > 100 | – | – | –
CC(C)C[C@@H](NC(=O)OC(C)(C)C)C(=O)N1CC(C[C@@H]2NC(=O)c3ccccc3N3C(=O)c4ccccc4NC23)c2ccccc21 (single isomer, unassigned; isomer 1) [Example 8] | 49 | 15 | – | – | –
CC(C)C[C@@H](NC(=O)OC(C)(C)C)C(=O)N1CC(C[C@@H]2NC(=O)c3ccccc3-n3c2nc2ccccc2c3=O)c2ccccc21 (single isomer, unassigned; isomer 2) [Example 7] | > 100 | > 100 | – | – | –
CC(C)C[C@@H](NC(=O)OC(C)(C)C)C(=O)N1CC(C[C@@H]2NC(=O)c3ccccc3N3C(=O)c4ccccc4NC23)c2ccccc21 (single isomer, unassigned; isomer 2) [Example 9] | 34 | 100 | – | – | –
O=C1N[C@@H](Cc2c[nH]c3ccccc23)c2nc3ccccc3c(=O)n2-c2ccccc21 [7β-[(1H-indol-3-yl)methyl]quinazolino(3,2-A) (1,4)benzodiazepin-5,13(6H,7H)dione] | – | – | 26 | selective in inhibiting the function of cholecystokinins in the gut | –
O=C1N[C@@H](Cc2c[nH]c3ccccc23)C2Nc3ccccc3C(=O)N2c2ccccc21 (some centres unmarked) [Example 1, 7,7A-dihydro-7-(1H-indol-3-yl)methylquinazolino(3,2-B)-1,4-benzodiazepin-5,13-(6H,9H)-dione monohydrate] | 12 | > 100 | – | – | –
O=C1N[C@@H](CC2CNc3ccccc32)c2nc3ccccc3c(=O)n2-c2ccccc21 (some centres unmarked) [Example 2, 7-[(2,3-dihydro-1H-indol-3-yl)methyl]-quinazolino(3,2-A)-1,4-benzodiazepin-5,13-(6H,7H)-dione hemihydrate] | 27 | > 100 | – | – | –
CC(C)C[C@H](NC(=O)OC(C)(C)C)C(=O)n1cc(C[C@@H]2NC(=O)c3ccccc3-n3c2nc2ccccc2c3=O)c2ccccc21 [Example 3, 7-[(1-[2(S)-((1,1-dimethylethoxy)-carbonyl)amino-4-methylpentanoyl]-1H-indol-3-yl)methyl]quinazolino(3,2-A)-1,4-benzodiazepin-5,13-(6H,7H)-dione sesquihydrate] | > 100 | > 100 | – | – | –
CC(C)C[C@H](NC(=O)OC(C)(C)C)C(=O)N1CC(C[C@@H]2NC(=O)c3ccccc3-n3c2nc2ccccc2c3=O)c2ccccc21 (stereo partly drawn) [Example 4, 7-[(1-[2(S)-((1,1-dimethylethoxy)carbonyl)amino-4-methylpentanoyl]-2,3-dihydro-1H-indol-3-yl)methyl]quinazolino(3,2-A)-1,4-benzodiazepin-5,13-(6H,7H)-dione hemihydrate] | 3.4 | > 100 | – | – | –
CC(C)C[C@H](NC(=O)OC(C)(C)C)C(=O)N1CC(C[C@@H]2NC(=O)c3ccccc3N3C(=O)c4ccccc4NC23)c2ccccc21 (stereo partly drawn) [Example 5, 7-[(1-[2(S)-((1,1-dimethylethoxy)carbonyl)amino-4-methylpentanoyl]-2,3-dihydro-1H-indol-3-yl)methyl]quinazolino(3,2-A)-1,4-benzodiazepin-5,13-(5H,7H)-dione hydrate] | 19.2 | > 100 | – | – | –
CC(C)C[C@H](NC(=O)OCc1ccccc1)C(=O)n1cc(C[C@@H]2NC(=O)c3ccccc3-n3c2nc2ccccc2c3=O)c2ccccc21 [Example 10, 7-[(1-[2(S)-phenylmethoxycarbonylamino-4-methylpentanoyl]-1H-indol-3-yl)methyl]quinazolino-(3,2-B)-1,4-benzodiazepin-5,13-(6H,7H)-dione] | > 100 | > 100 | – | – | –
CCCC(=O)Nc1nc2c(ncn2[C@@H]2O[C@@H]3COP(=O)(O)O[C@H]3[C@H]2OC(=O)CCC)c(=O)[nH]1 [dibutyryl cyclic GMP] | – | – | – | – | most potent
